The target in assay [1] is T1, ABL1 (64-515) (Homo sapiens (Human), UniProt P00519). Kind of assay: Radio ABL1 (64-515) assay (radiometric filter-binding). The assay is classed as biochemical.
Assay [2] has as its target T1, ABL1 (64-515). Kind of assay: Caliper ABL1 (64-515) assay (microfluidic mobility shift). Format: biochemical.

The source of these data is patent US9278981B2, “Compounds and compositions for inhibiting the activity of ABL1, ABL2 and BCR-ABL1” (Novartis AG, priority 2012, dated 2016).

Where only a bound is given, the exact number is not on record here.

T1 sequence (P00519 64-515): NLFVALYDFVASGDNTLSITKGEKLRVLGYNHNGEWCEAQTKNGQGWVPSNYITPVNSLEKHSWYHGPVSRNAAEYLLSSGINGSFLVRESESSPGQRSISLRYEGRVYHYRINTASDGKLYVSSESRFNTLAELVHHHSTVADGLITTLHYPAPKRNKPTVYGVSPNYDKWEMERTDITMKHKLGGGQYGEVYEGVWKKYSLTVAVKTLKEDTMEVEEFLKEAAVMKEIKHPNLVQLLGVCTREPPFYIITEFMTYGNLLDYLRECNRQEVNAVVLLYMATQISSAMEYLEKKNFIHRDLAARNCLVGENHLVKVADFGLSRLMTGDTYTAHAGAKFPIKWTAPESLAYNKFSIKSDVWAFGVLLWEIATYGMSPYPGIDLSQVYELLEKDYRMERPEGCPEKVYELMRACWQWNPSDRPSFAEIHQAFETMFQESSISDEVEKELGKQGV

What is called IC50 is the concentration needed to halve the response being measured. Take `O=C(Nc1ccc(OC(F)(F)F)cc1)c1cnc(N2CC[C@@H](O)C2)c(-c2cnccc2F)c1` [Example 48, (R)-4′-Fluoro-2-(3-hydroxypyrrolidin-1-yl)-N-(4-(trifluoromethoxy)phenyl)-[3,3′-bipyridine]-5-carboxamide]: the figures for the IC50 on ABL1 (64-515) [1] and on ABL1 (64-515) [2] were 4.2 nM and 0.8 nM, respectively.
For `O=C(Nc1ccc(OC(F)(F)F)cc1)c1cnc(N2CC[C@@H](O)C2)c(-c2cc(F)cnc2F)c1` [Example 49, (R)-2′,5′-Difluoro-2-(3-hydroxypyrrolidin-1-yl)-N-(4-(trifluoromethoxy)phenyl)-[3,3′-bipyridine]-5-carboxamide], in that order: 5 nM and 3.5 nM.
Consider `O=C(Nc1ccc(OC(F)(F)F)cc1)c1cnc(N2CC[C@@H](O)C2)c(-c2cncc(Cl)c2)c1` [Example 50, (R)-5′-Chloro-2-(3-hydroxypyrrolidin-1-yl)-N-(4-(trifluoromethoxy)phenyl)-[3,3′-bipyridine]-5-carboxamide], for which the IC50 on ABL1 (64-515) [1] was determined as 3 nM; at ABL1 (64-515) [2], 1.1 nM.
For `O=C(Nc1ccc(OC(F)(F)F)cc1)c1cnc(N2CC[C@@H](O)C2)c(-c2ccc(C(F)(F)F)nc2)c1` [Example 51, (R)-2-(3-Hydroxypyrrolidin-1-yl)-N-(4-(trifluoromethoxy)phenyl)-6′-(trifluoromethyl)-[3,3′-bipyridine]-5-carboxamide], in that order: under 3 nM and 2.9 nM.
On to `O=C(Nc1ccc(OC(F)(F)F)cc1)c1cnc(N2CC[C@@H](O)C2)c(-c2cnc(Cl)c(F)c2)c1` [Example 53, (R)-6′-Chloro-5′-fluoro-2-(3-hydroxypyrrolidin-1-yl)-N-(4-(trifluoromethoxy)phenyl)-[3,3′-bipyridine]-5-carboxamide], for which the IC50 is under 3 nM at ABL1 (64-515) [1] and 0.4 nM on ABL1 (64-515) [2].
As for `N#Cc1cncc(-c2cc(C(=O)Nc3ccc(OC(F)(F)F)cc3)cnc2N2CC[C@@H](O)C2)c1` [Example 54, (R)-5′-Cyano-2-(3-hydroxypyrrolidin-1-yl)-N-(4-(trifluoromethoxy)phenyl)-[3,3′-bipyridine]-5-carboxamide], the IC50 on ABL1 (64-515) [1] was 5 nM; on ABL1 (64-515) [2], 0.9 nM.
For `O=C(Nc1ccc(OC(F)(F)F)cc1)c1cnc(N2CC[C@@H](O)C2)c(-c2cccc(F)c2)c1` [Example 58, (R)-5-(3-Fluorophenyl)-6-(3-hydroxypyrrolidin-1-yl)-N-(4-(trifluoromethoxy)phenyl)nicotinamide], in that order: 4 nM and 0.6 nM.
For `CC(C)(O)c1cc(F)cc(-c2cc(C(=O)Nc3ccc(OC(F)(F)F)cc3)cnc2N2CC[C@@H](O)C2)c1` [Example 60, (R)-5-(3-Fluoro-5-(2-hydroxypropan-2-yl)phenyl)-6-(3-hydroxypyrrolidin-1-yl)-N-(4-(trifluoromethoxy)phenyl)nicotinamide], in that order: 4 nM and 6 nM.
For `O=C(Nc1ccc(OC(F)(F)F)cc1)c1cnc(N2CC[C@@H](O)C2)c(-c2cc(F)cc(F)c2)c1` [Example 61, (R)-5-(3,5-Difluorophenyl)-6-(3-hydroxypyrrolidin-1-yl)-N-(4-(trifluoromethoxy)phenyl)nicotinamide], in that order: 4 nM and 0.5 nM.
For the compound `COC(=O)c1cc(F)cc(-c2cc(C(=O)Nc3ccc(OC(F)(F)F)cc3)cnc2N2CC[C@@H](O)C2)c1` [Example 62, (R)-Methyl 3-fluoro-5-(2-(3-hydroxypyrrolidin-1-yl)-5-((4-(trifluoromethoxy)phenyl)carbamoyl)pyridin-3-yl)benzoate], the half-inhibitory concentration (IC50) is 4 nM on ABL1 (64-515) [1] and 2.1 nM on ABL1 (64-515) [2].
For `Nc1ncc(-c2cc(C(=O)Nc3ccc(OC(F)(F)F)cc3)cnc2N2CCCC2)cn1` [Example 68, 5-(2-Aminopyrimidin-5-yl)-6-(pyrrolidin-1-yl)-N-(4-(trifluoromethoxy)phenyl)nicotinamide], in that order: under 3 nM and 0.9 nM.
For `O=C(Nc1ccc(OC(F)(F)F)cc1)c1cnc(N2CCCC2)c(-c2ccc(CO)nc2)c1` [Example 69, 6′-(Hydroxymethyl)-2-(pyrrolidin-1-yl)-N-(4-(trifluoromethoxy)phenyl)-[3,3′-bipyridine]-5-carboxamide], in that order: under 3 nM and 0.5 nM.
For `O=C(Nc1ccc(OC(F)(F)F)cc1)c1cnc(N2C[C@H](O)[C@@H](O)C2)c(-c2cccnc2)c1` [Example 70, 2-((3S,4S)-3,4-Dihydroxypyrrolidin-1-yl)-N-(4-(trifluoromethoxy)phenyl)-[3,3′-bipyridine]-5-carboxamide], in that order: under 3 nM and 0.4 nM.
With `Cc1ccc(-c2cc(C(=O)Nc3ccc(OC(F)(F)F)cc3)cnc2N2CC[C@@H](CO)C2)cn1` [Example 77, (R)-2-(3-(hydroxymethyl)pyrrolidin-1-yl)-6′-methyl-N-(4-(trifluoromethoxy)phenyl)-[3,3′-bipyridine]-5-carboxamide], the IC50 came to 3 nM on ABL1 (64-515) [1] and 0.9 nM at ABL1 (64-515) [2].
For `Cc1ccc(-c2cc(C(=O)Nc3ccc(OC(F)(F)F)cc3)cnc2N2CC[C@H](CO)C2)cn1` [Example 82, (S)-2-(3-(Hydroxymethyl)pyrrolidin-1-yl)-6′-methyl-N-(4-(trifluoromethoxy)phenyl)-[3,3′-bipyridine]-5-carboxamide], in that order: under 3 nM and 0.6 nM.
Regarding `O=C(Nc1ccc(OC(F)(F)F)cc1)c1cnc(N2CC[C@H](CO)C2)c(-c2ccc(CF)nc2)c1` [Example 84, (S)-6′-(Fluoromethyl)-2-(3-(hydroxymethyl)pyrrolidin-1-yl)-N-(4-(trifluoromethoxy)phenyl)-[3,3′-bipyridine]-5-carboxamide], the IC50 at ABL1 (64-515) [1] came to 3 nM; on ABL1 (64-515) [2], 1.1 nM.
On the same counts, the results for `Cc1ncc(-c2cc(C(=O)Nc3ccc(OC(F)(F)F)cc3)cnc2N2CC[C@H](CO)C2)cc1F` [Example 87, (S)-5′-Fluoro-2-(3-(hydroxymethyl)pyrrolidin-1-yl)-6′-methyl-N-(4-(trifluoromethoxy)phenyl)-[3,3′-bipyridine]-5-carboxamide] are 6 nM and 0.7 nM.
On the same counts, the results for `O=C(Nc1ccc(OC(F)(F)F)cc1)c1cnc(N2CC[C@H](CO)C2)c(-c2ccc(Cl)nc2)c1` [Example 88, (S)-6′-Chloro-2-(3-(hydroxymethyl)pyrrolidin-1-yl)-N-(4-(trifluoromethoxy)phenyl)-[3,3′-bipyridine]-5-carboxamide] are 4 nM and under 0.13 nM.
For `O=C(Nc1ccc(OC(F)(F)F)cc1)c1cnc(N2CC[C@H](CO)C2)c(-c2cnc(Cl)c(F)c2)c1` [Example 89, (S)-6′-Chloro-5′-fluoro-2-(3-(hydroxymethyl)pyrrolidin-1-yl)-N-(4-(trifluoromethoxy)phenyl)-[3,3′-bipyridine]-5-carboxamide], in that order: under 3 nM and 0.3 nM.
As to `N#Cc1cncc(-c2cc(C(=O)Nc3ccc(OC(F)(F)F)cc3)cnc2N2CC[C@H](CO)C2)c1` [Example 90, (S)-5′-Cyano-2-(3-(hydroxymethyl)pyrrolidin-1-yl)-N-(4-(trifluoromethoxy)phenyl)-[3,3′-bipyridine]-5-carboxamide], the IC50 on ABL1 (64-515) [1] was under 3 nM; at ABL1 (64-515) [2], 0.7 nM.
As to `CN[C@H]1CCN(c2ncc(C(=O)Nc3ccc(OC(F)(F)F)cc3)cc2-c2cncnc2)C1` [Example 102, (S)-6-(3-(Methylamino)pyrrolidin-1-yl)-5-(pyrimidin-5-yl)-N-(4-(trifluoromethoxy)phenyl)nicotinamide], the half-maximal inhibitory concentration (IC50) at ABL1 (64-515) [1] was under 3 nM; at ABL1 (64-515) [2], 2.3 nM.
For `CC(C)(O)C1CCN(c2ncc(C(=O)Nc3ccc(OC(F)(F)F)cc3)cc2-c2cncnc2)C1` (centres unmarked) [Example 113, 6-(3-(2-Hydroxypropan-2-yl)pyrrolidin-1-yl)-5-(pyrimidin-5-yl)-N-(4-(trifluoromethoxy)phenyl)nicotinamide], in that order: under 3 nM and 1.5 nM.
On the same counts, the results for `O=C(Nc1ccc(OC(F)(F)F)cc1)c1cnc(N2CCC3(COC3)C2)c(-c2cncnc2)c1` [Example 116, 5-(Pyrimidin-5-yl)-6-(2-oxa-6-azaspiro[3.4]octan-6-yl)-N-(4-(trifluoromethoxy)phenyl)nicotinamide] are under 3 nM and 3.5 nM.
For `O=C(Nc1ccc(OC(F)(F)F)cc1)c1ccc(N2CCOC2=O)c(-c2cncnc2)c1` [Example 117, 4-(2-Oxooxazolidin-3-yl)-3-(pyrimidin-5-yl)-N-(4-(trifluoromethoxy)phenyl)benzamide], in that order: 0.4 nM and 5.5 nM.
`Cc1ccc(-c2cc(C(=O)Nc3ccc(OC(F)(F)F)cc3)cnc2N2CC(O)C2)cn1` [Example 127, 2-(3-Hydroxyazetidin-1-yl)-6′-methyl-N-(4-(trifluoromethoxy)phenyl)-[3,3′-bipyridine]-5-carboxamide]: the concentration for half-maximal inhibition (IC50) worked out at 4 nM on ABL1 (64-515) [1] and 1.1 nM at ABL1 (64-515) [2].
On the same counts, the results for `CC1(O)CN(c2ncc(C(=O)Nc3ccc(OC(F)(F)F)cc3)cc2-c2cccnc2)C1` [Example 130, 2-(3-Hydroxy-3-methylazetidin-1-yl)-N-(4-(trifluoromethoxy)phenyl)-[3,3′-bipyridine]-5-carboxamide] are 3 nM and 1.2 nM.
On the same counts, the results for `Cc1ccc(-c2cc(C(=O)Nc3ccc(OC(F)(F)F)cc3)cnc2N2CC(C)(O)C2)cn1` [Example 131, 2-(3-Hydroxy-3-methylazetidin-1-yl)-6′-methyl-N-(4-(trifluoromethoxy)phenyl)-[3,3′-bipyridine]-5-carboxamide] are 8.4 nM and 1.3 nM.
For `CC1(O)CN(c2ncc(C(=O)Nc3ccc(OC(F)(F)F)cc3)cc2-c2cncc(F)c2)C1` [Example 132, 5′-Fluoro-2-(3-hydroxy-3-methylazetidin-1-yl)-N-(4-(trifluoromethoxy)phenyl)-[3,3′-bipyridine]-5-carboxamide], in that order: under 3 nM and 1.5 nM.
